{
  "source": "paper PMC2410273",
  "about": "“Pharmacokinetic behaviour of the chemoprotectants BNP7787 and mesna after an i.v. bolus injection in rats” (British Journal of Cancer, 2004)",
  "key": {"[1]": {"experiment": "Pharmacokinetics and tissue distribution of BNP7787 and mesna after i.v. bolus of BNP7787 or mesna in WARD tumour-bearing rats", "assay_type": "in vivo, Fischer rats", "conditions": "for Kp: female, Fischer, rat, iv, 1000 mg/kg", "from_the_text": "The protocol was approved by the ethics committee for animal experiments of the Vrije Universiteit medical center in Amsterdam, The Netherlands. This committee strictly adheres to the standards required by the UKCCCR for the welfare of animals in neoplasia ([Workman et al, 1998]). Female Fischer rats (144–171 g) were obtained from Harlan (Indianapolis, USA) and were implanted subcutaneously in both flanks with fragments (2–3 mm diameter) of the WARD colorectal tumour ([Cao et al, 1994]). The pharmacokinetic study started at the time the tumours had reached a mean size of approximately 600 mm^3 (range 250–900 mm^3).\nTumour-bearing rats were treated with 1000 mg kg^−1 BNP7787 i.v. or 1000 mg kg^−1 mesna i.v. injected in the tail vein. Approximately 5 min before sample collection, the rats were anaesthetised by i.p. injection with 0.1 ml of a mixture of 75 mg ml^−1 ketamine plus 5 mg ml^−1 xylazine per 100 g weight. Blood was obtained by heart puncture at 0, 5, 15, 30, 45, 60, 90 and 150 min after i.v. administration of BNP7787 or mesna. Thereafter, the kidney, liver and tumour were removed by surgical dissection. In addition, at time points 0 and 30 min, skeletal muscle attached to the thighbone was also collected. At each time point three rats were killed.\nImmediately after collection, the blood samples, which were collected in cooled EDTA-containing tubes (potassium-EDTA 1.6 mg EDTA ml^−1 blood; Sarstedt, Germany), were centrifuged at 4°C for 10 min at 4000 g. Plasma was separated and immediately deproteinised by adding one volume of sulphuric acid (0.33 M) and one volume of sodium hexametaphosphate (5 g/100 ml). After vortexing and centrifugation for 2 min at 12 000 g, the supernatant was stored in aliquots at −80°C until analysis. One volume of RBCs was washed with 1 volume of cold phosphate-buffered saline (PBS) of pH 7.4 containing sodium phosphate (10 mM) and NaCl (140 mM; Hospital Pharmacy, VUmc, Amsterdam, The Netherlands). This mixture was centrifuged for 2 min, 12 000 g at 4°C. After removing the PBS, the remaining RBCs were stored in liquid nitrogen until further processing.\nThe kidney, liver, tumour and skeletal muscle were washed with cold PBS before storage in liquid nitrogen. After collection of all the samples at the different time points, tissue homogenates of kidney, liver, tumour and skeletal muscle were prepared by pulverisation using a Braun Micro-dismembrator (Salm and Kipp; Breukelen, The Netherlands) according to the method described by [Peters et al (1986)]. An appropriate volume of aqueous EDTA (1 g l^−1) was added to the RBC and tissue homogenates to obtain a concentration of 100 mg tissue (wet weight) per ml. After sonification (10 min) and vortexing (10 min), the samples were subsequently deproteinised by adding 1 volume of cold sulphuric acid (0.33 M) and 1 volume of cold sodium hexametaphosphate (5 g/100 ml). After thorough vortexing and centrifugation (2 min at 8500 g at 4°C), the supernatants were stored in aliquots at −80° until analysis.\nBNP7787 and mesna concentrations were determined selectively in one run using micro-HPLC with a dual electrochemical detector (dual ECD) ([Verschraagen et al, 2003b]). Briefly, citrate-NaOH buffer (40 μl of a mixture of 1 ml 5.0 M sodium hydroxide and 4 ml 0.5 M tri-sodium citrate buffer, pH 3.0) was added to 200 μl of deproteinised plasma, RBC or tissue sample, and the sample was injected into the micro-HPLC system which consisted of a Phenomenex C18 guard column (10 μm, 4 × 2.0 mm) and a Phenomenex Prodigy C18 ODS-3 column (5 μm, 100 × 1.0 mm; Bester, Amstelveen, The Netherlands)."}, "[2]": {"set-up": "method as in Hausheer et al, 1998", "conditions": "dogs, ref Hausheer et al, 1998; cited from earlier work"}, "[3]": {"set-up": "method as in Hausheer et al, 1998", "conditions": "rats, ref Hausheer et al, 1998; cited from earlier work"}, "[4]": {"tested_on": "cisplatin-induced nephrotoxicity", "set-up": "method as in Hausheer et al, 1998", "conditions": "rats, ref Hausheer et al, 1998, cited from earlier work"}, "[5]": {"tested_on": "cisplatin-induced nephrotoxicity", "set-up": "method as in Hausheer et al, 1998", "conditions": "dogs; plasma creatinine, BUN, renal histopathology; ref Hausheer et al, 1998; cited from earlier work"}, "[6]": {"tested_on": "antitumour activity of cisplatin", "set-up": "method as in Hausheer et al, 1998", "conditions": "tumour-bearing rats; given preceding cisplatin; ref Hausheer et al, 1998; cited from earlier work"}, "[7]": {"tested_on": "antitumour activity of cisplatin", "set-up": "method as in Boven et al, 2002", "conditions": "tumour-bearing nude mice; given preceding cisplatin; ref Boven et al, 2002; cited from earlier work"}, "[8]": {"set-up": "method as in Verschraagen et al, in press", "conditions": "cancer patients, ref Verschraagen et al, in press, cited from earlier work"}, "[9]": {"tested_on": "cisplatin-induced toxicity", "set-up": "method as in Boven et al, 2002", "conditions": "nude mice; in the presence of 1000 mg kg^−1 BNP7787; ref Boven et al, 2002; cited from earlier work"}, "[10]": {"tested_on": "intestinal and renal epithelial cells", "set-up": "method as in earlier work", "conditions": "isolated cells, via facilitated transport, ref Ormstad and Uehara, 1982, Ormstad et al, 1983, Brock et al, 1984, Ormstad and Ohno; cited from earlier work"}, "[11]": {"conditions": "after 1000 mg kg^−1 BNP7787 i.v., RBC"}, "[12]": {"conditions": "after 1000 mg kg^−1 BNP7787 i.v., kidney"}, "[13]": {"conditions": "after 1000 mg kg^−1 BNP7787 i.v., liver"}, "[14]": {"conditions": "after 1000 mg kg^−1 BNP7787 i.v., plasma"}, "[15]": {"conditions": "after 1000 mg kg^−1 BNP7787 i.v., tumour"}},
  "note": "Where two headings read alike, the source gives them in different places.",
  "data": [
    {"smiles": "O=S(=O)([O-])CCSSCCS(=O)(=O)[O-].[Na+].[Na+]", "note": "[BNP7787, disodium 2,2′-dithio-bis-ethane sulphonate]", "values": [
      {"measurement": "mean concentration (±s.d.) in skeletal muscle", "setting": "[1]; 30 min after 1000 mg kg^−1 BNP7787 i.v.", "value": "36.9 ± 26.0", "unit": "nmol/g"},
      {"measurement": "mean concentration (±s.d.) in skeletal muscle", "setting": "[1]; 30 min after 1000 mg kg^−1 mesna i.v.", "value": "30.3 ± 17.6", "unit": "nmol/g"},
      {"measurement": "AUC (printed: concentration) after BNP7787 administration compared with after mesna administration", "setting": "[1]; RBC, each 1000 mg kg^−1 i.v., P<0.01", "value": "six-fold lower"},
      {"measurement": "AUC of BNP7787, fold lower than AUC of mesna", "setting": "[1]; [11]", "value": 11.4, "unit": "fold"},
      {"measurement": "time detectable", "setting": "[1]; [11]", "value": 30, "unit": "min"},
      {"measurement": "time of highest concentrations / peak levels", "setting": "[1]; after 1000 mg kg^−1 BNP7787 i.v., all compartments", "value": 5, "unit": "min"},
      {"measurement": "AUC of BNP7787, fold lower than AUC of mesna", "setting": "[1]; [12]", "value": 2.7, "unit": "fold"},
      {"measurement": "time detectable", "setting": "[1]; [12]", "value": 90, "unit": "min"},
      {"measurement": "AUC of BNP7787, fold lower than AUC of mesna", "setting": "[1]; [13]", "value": 39.8, "unit": "fold"},
      {"measurement": "time detectable", "setting": "[1]; [13]", "value": 30, "unit": "min"},
      {"measurement": "AUC of BNP7787 relative to AUC of mesna", "setting": "[1]; [14]", "value": "almost two-fold higher"},
      {"measurement": "time detectable", "setting": "[1]; [14]", "value": 90, "unit": "min"},
      {"measurement": "AUC of BNP7787, fold lower than AUC of mesna", "setting": "[1]; [15]", "value": 5.1, "unit": "fold"},
      {"measurement": "time detectable", "setting": "[1]; [15]", "value": 45, "unit": "min"},
      {"measurement": "time detectable", "setting": "[1]; after 1000 mg kg^−1 mesna i.v., kidney", "value": "at least 150 min"},
      {"measurement": "time detectable", "setting": "[1]; after 1000 mg kg^−1 mesna i.v., plasma", "value": "at least 150 min"},
      {"measurement": "time detectable", "setting": "[1]; after 1000 mg kg^−1 mesna i.v., tumour", "value": "at least 150 min"},
      {"measurement": "AUC^5−60 in plasma, fold higher in rats than in nude mice", "setting": "[1]; after equivalent dose of 1000 mg kg^−1 BNP7787, mouse data ref Boven et al, 2002", "value": 2.7, "unit": "fold"},
      {"measurement": "AUC, fold lower than the corresponding value in kidney", "setting": "[1]; all other sampled tissue compartments, after either BNP7787 or mesna", "value": "at least 5.5 fold"},
      {"measurement": "Kp", "setting": "[1]; all tissue compartments other than kidney / plasma, after 1000 mg kg^−1 mesna i.v., all tissue compartments other than kidney, read-out: tissue–plasma AUC ratio", "value": "< 0.3"},
      {"measurement": "Kp", "setting": "[1]; kidney / plasma, after 1000 mg kg^−1 BNP7787 i.v., read-out: kidney–plasma AUC ratio", "value": 0.9},
      {"measurement": "Kp", "setting": "[1]; kidney / plasma, after 1000 mg kg^−1 mesna i.v., read-out: kidney–plasma AUC ratio", "value": 2.1},
      {"measurement": "Kp", "setting": "[1]; liver / plasma, after 1000 mg kg^−1 BNP7787 i.v., read-out: liver–plasma AUC ratio", "value": 0.01},
      {"measurement": "Kp", "setting": "[1]; red blood cells / plasma, after 1000 mg kg^−1 BNP7787 i.v., read-out: RBC–plasma AUC ratio", "value": 0.01},
      {"measurement": "Kp", "setting": "[1]; tumour / plasma, after 1000 mg kg^−1 BNP7787 i.v., read-out: tumour–plasma AUC ratio", "value": 0.08},
      {"measurement": "AUC after BNP7787 administration compared with after mesna administration", "setting": "[1]; kidney, each 1000 mg kg^−1 i.v.", "value": "smaller, but not significant difference"},
      {"measurement": "AUC after BNP7787 administration compared with after mesna administration", "setting": "[1]; liver, each 1000 mg kg^−1 i.v.", "value": "not significantly different"},
      {"measurement": "AUC after BNP7787 administration compared with after mesna administration", "setting": "[1]; plasma, each 1000 mg kg^−1 i.v., P<0.01", "value": "more than three-fold higher"},
      {"measurement": "AUC after BNP7787 administration compared with after mesna administration", "setting": "[1]; tumour, each 1000 mg kg^−1 i.v.", "value": "not significantly different"},
      {"measurement": "nontoxic dose after i.v. administration", "setting": "[2]", "value": 2000, "unit": "mg/kg"},
      {"measurement": "nontoxic dose after i.v. administration", "setting": "[3]", "value": 4000, "unit": "mg/kg"},
      {"measurement": "cisplatin dose (mg kg^−1) tolerated when preceded by BNP7787", "setting": "[4]; 750 or 1500 mg kg^−1 BNP7787 i.v.", "value": "could be safely increased from 6 to 9"},
      {"measurement": "protection against cisplatin-induced nephrotoxicity", "setting": "[4]; plasma creatinine, BUN, renal histopathology", "value": "completely protected"},
      {"measurement": "protection against cisplatin-induced nephrotoxicity", "setting": "[5]", "value": "completely protected"},
      {"measurement": "effect on antitumour activity of cisplatin", "setting": "[6]", "value": "did not reduce the antitumour activity of cisplatin"},
      {"measurement": "effect on antitumour activity of cisplatin", "setting": "[7]", "value": "did not reduce the antitumour activity of cisplatin"},
      {"measurement": "pharmacokinetic interaction with intact cisplatin", "setting": "[8]; BNP7787 18.4–41 g m^−2", "value": "no mutual pharmacokinetic interaction"},
      {"measurement": "relatively nontoxic dose", "setting": "[8]; phase I, BNP7787 preceding cisplatin", "value": "≤ 41", "unit": "g m^−2"},
      {"measurement": "weight loss on cisplatin dose increase from 5 to 8 mg kg^−1", "setting": "[9]", "value": "weight loss increased"},
      {"measurement": "cellular uptake", "setting": "[10]", "value": "preferentially taken up in intestinal and renal epithelial cells"}
    ]}
  ]
}
